# Data: US7786141B2 (Vertex Pharmaceuticals Incorporated, priority 2004, dated 2010)
# Where two headings read alike, the source gives them in different places.
# Columns and labels:
# M1 muscarinic receptor = target: T1, M1 muscarinic receptor (Homo sapiens, UniProt P11229); experiment: Functional mobilization of intracellular calcium (FLIPR) in M1-CHO cells; format: cell-based
# T1 construct: expressed in transfected cells; host or cells: CHO (M1-CHO)
# T1 sequence (P11229 1-460): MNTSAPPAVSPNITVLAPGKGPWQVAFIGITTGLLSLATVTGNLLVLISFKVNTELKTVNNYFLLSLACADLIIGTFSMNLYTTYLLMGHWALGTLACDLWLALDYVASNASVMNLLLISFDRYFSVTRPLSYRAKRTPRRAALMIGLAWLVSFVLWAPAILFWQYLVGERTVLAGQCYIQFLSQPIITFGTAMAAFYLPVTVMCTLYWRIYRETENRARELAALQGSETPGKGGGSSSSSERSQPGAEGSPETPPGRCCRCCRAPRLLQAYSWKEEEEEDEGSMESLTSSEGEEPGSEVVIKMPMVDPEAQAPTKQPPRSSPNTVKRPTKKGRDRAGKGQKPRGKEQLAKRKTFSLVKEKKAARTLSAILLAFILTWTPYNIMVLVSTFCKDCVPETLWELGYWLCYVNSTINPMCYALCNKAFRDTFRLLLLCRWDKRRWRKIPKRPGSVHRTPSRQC
# Method in brief: (§1)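 Intracellular calcium rise is measured by FLIPR fluorescence over 60 sec in CHO cells carrying human M1 or M4 receptors. Compounds are tested alone as agonists, or pre-incubated 15 min (or co-applied) ahead of carbachol at its EC80 to detect inhibition.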
# M4 muscarinic receptor = target: T2, M4 muscarinic receptor (Homo sapiens, UniProt P08173); experiment: Functional mobilization of intracellular calcium (FLIPR) in M4-CHO cells; format: cell-based
# T2 construct: expressed in transfected cells; host or cells: CHO (M4-CHO)
# T2 sequence (P08173 1-479): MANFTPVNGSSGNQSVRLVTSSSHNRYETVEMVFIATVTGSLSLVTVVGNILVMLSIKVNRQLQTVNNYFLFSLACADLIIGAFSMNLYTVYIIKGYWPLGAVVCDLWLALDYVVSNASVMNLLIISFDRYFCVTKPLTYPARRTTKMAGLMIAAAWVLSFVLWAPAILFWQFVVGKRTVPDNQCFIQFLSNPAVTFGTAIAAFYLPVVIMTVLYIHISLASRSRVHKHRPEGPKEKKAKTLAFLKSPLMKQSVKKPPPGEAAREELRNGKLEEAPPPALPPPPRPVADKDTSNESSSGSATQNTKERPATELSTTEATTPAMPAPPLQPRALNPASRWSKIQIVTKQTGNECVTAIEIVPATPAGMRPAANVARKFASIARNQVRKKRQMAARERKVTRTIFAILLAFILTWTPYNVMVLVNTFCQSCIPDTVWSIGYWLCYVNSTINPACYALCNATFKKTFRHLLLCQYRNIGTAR
# Method in brief: as §1
# [1] = M1 receptor, calcium mobilization
# [2] = M1 receptor, calcium mobilization, read-out: M1 Efficacy
# [3] = M4 receptor, calcium mobilization
# [4] = M4 receptor, calcium mobilization, read-out: M4 Efficacy
# [5] = Table 4, 100% efficacy is the maximum response obtained with the Carbachol control
# [6] = Table 4, M1 receptor, calcium mobilization (FLIPR)
# [7] = Table 4, M4 receptor, calcium mobilization (FLIPR)
# [8] = M1-CHO cells, calcium mobilization (FLIPR)
# [9] = M1-CHO cells, calcium mobilization (FLIPR), read-out: M1 Efficacy
# [10] = M4-CHO cells, calcium mobilization (FLIPR)
# [11] = M4-CHO cells, calcium mobilization (FLIPR), read-out: M4 Efficacy
# [12] = Table 4, modulating M1 receptor
# [13] = Table 4, modulating M4 receptor
SMILES,M1 Activity (M1 muscarinic receptor; [1]),Emax (M1 muscarinic receptor; [2]),M4 Activity (M4 muscarinic receptor; [3]),Emax (M4 muscarinic receptor; [4]),Emax (M1 muscarinic receptor; [5]),Emax (M4 muscarinic receptor; [5]),further results
CCOC(=O)N1CCC(N2CCC3(CC2)CN(C(C)=O)c2ccc(C)cc23)CC1 [compound 92],xxx (activity was measured to be less than 0.1 μM),65 to 85%,xx (activity was measured to be between 0.1 μM and 1.0 μM),< 65%,–,–,–
CN(C)C(=O)N1CC2(CCN(C3CCN(C(=O)[C@@H]4CCCO4)CC3)CC2)c2cc(F)ccc21 [compound 1006],–,–,–,–,25 to 100%,< 25%,M1 Activity (M1 muscarinic receptor; [6]): x (activity was measured to be greater than 5.0 μM); M4 Activity (M4 muscarinic receptor; [7]): x (activity was measured to be greater than 5.0 μM)
CCCOC(=O)N1C2CCC1CC(N1CCC3(CC1)CN(C(=O)OCCOC)c1ccc(F)cc13)C2 (centres unmarked) [compound 405],–,–,–,–,–,–,EC50 (M1 muscarinic receptor; [8]): 0.1 to 1 µM; Emax (M1 muscarinic receptor; [9]): < 65%; EC50 (M4 muscarinic receptor; [10]): > 1 µM; Emax (M4 muscarinic receptor; [11]): < 65%
CC(=O)N[C@H]1CC2(CCN(CC3CCN(C(=O)OC(C)C)CC3)CC2)c2ccccc21 [compound 399],–,–,–,–,–,–,EC50 (M1 muscarinic receptor; [8]): 0.1 to 1 µM; Emax (M1 muscarinic receptor; [9]): 65 to 85%; EC50 (M4 muscarinic receptor; [10]): 0.1 to 1 µM; Emax (M4 muscarinic receptor; [11]): < 65%
CCOC(=O)N1CCC(N2CCC3(CC2)CN(CCC(=O)CC)c2ccc(F)cc23)CC1 [compound 229],xx (activity was measured to be between 0.1 μM and 1.0 μM),< 65%,xxx (activity was measured to be less than 0.1 μM),> 85%,–,–,–
CC(=O)N1CC2(CCN(C3CCCC(C(F)(F)F)C3)CC2)c2cc(F)ccc21 (centres unmarked) [compound 425],–,–,–,–,–,–,EC50 (M1 muscarinic receptor; [8]): > 1 µM; Emax (M1 muscarinic receptor; [9]): < 65%; EC50 (M4 muscarinic receptor; [10]): > 1 µM; Emax (M4 muscarinic receptor; [11]): < 65%
CC(=O)N[C@H]1CCC2(CCN(CCCC3CCCCC3)CC2)c2ccccc21 [compound 452],–,–,–,–,25 to 100%,< 25%,M1 Activity (M1 muscarinic receptor; [12]): xxx (activity was measured to be less than 2.0 μM); M4 Activity (M4 muscarinic receptor; [13]): x (activity was measured to be greater than 5.0 μM)
CC(=O)N1CC2(CCN(C3CCN(c4cncc(C5CC5)n4)CC3)CC2)c2ccccc21 [compound 611],–,–,–,–,25 to 100%,< 25%,M1 Activity (M1 muscarinic receptor; [12]): xxx (activity was measured to be less than 2.0 μM); M4 Activity (M4 muscarinic receptor; [13]): x (activity was measured to be greater than 5.0 μM)
c1ccc2c(c1)NCC21CCN(CC2CCCCC2)CC1 [compound 342],xxx (activity was measured to be less than 0.1 μM),65 to 85%,xx (activity was measured to be between 0.1 μM and 1.0 μM),65 to 85%,–,–,–
CCOC(=O)N1CCC(N2CCC3(CC2)CN(c2ccsc2)c2ccc(F)cc23)CC1 [compound 891],–,–,–,–,25 to 100%,25 to 100%,M1 Activity (M1 muscarinic receptor; [6]): xxx (activity was measured to be less than 2.0 μM); M4 Activity (M4 muscarinic receptor; [7]): xxx (activity was measured to be less than 2.0 μM)
COCCOC(=O)N1C2CCC1CC(N1CCC3(CC1)CN(C(=O)OC)c1ccc(F)cc13)C2 (centres unmarked) [compound 33],xxx (activity was measured to be less than 0.1 μM),> 85%,xxx (activity was measured to be less than 0.1 μM),> 85%,–,–,–
CC(C)OC(=O)N1C2CCC1CC(N1CCC3(CC1)COc1ccc(F)cc13)C2 (centres unmarked) [compound 320],xx (activity was measured to be between 0.1 μM and 1.0 μM),65 to 85%,x (activity was measured to be greater than 1.0 μM),< 65%,–,–,–
CC(=O)N[C@H]1CCC2(CCN(C3CC(C)(C)CC(C)(C)C3)CC2)c2ccccc21 [compound 504],–,–,–,–,< 25%,< 25%,M1 Activity (M1 muscarinic receptor; [12]): x (activity was measured to be greater than 5.0 μM); M4 Activity (M4 muscarinic receptor; [13]): x (activity was measured to be greater than 5.0 μM)
CCCOC(=O)N1CC[C@@H](CN2CCC3(CC2)CN(C(C)=O)c2ccccc23)C1 [compound 478],–,–,–,–,< 25%,< 25%,M1 Activity (M1 muscarinic receptor; [12]): x (activity was measured to be greater than 5.0 μM); M4 Activity (M4 muscarinic receptor; [13]): x (activity was measured to be greater than 5.0 μM)
